Experimental data: patent EP0470323A2, “New salts of the nicotinic acid with aminobenzylic compounds and their pharmaceutical use” (BROMLEY LIMITED, priority 1990, dated 1992)

Test system: skin temperature of the mouse's paw
Assay: Peripheral vessel-dilating activity in the mouse (skin temperature of hind paws)
Type: in vivo
Conditions: for Temperature (°C) of the hind paws (n=10): intravenous; for Temperature (°C) of the hind paws: oral
Description: The method of Richter W. (Acta Pharm. Toxicol. 21, 91; 1974) was used; it consists in determining, at fixed time intervals after the treatment, the skin temperature of the mouse's paw, by keeping the animals in rooms at a constant temperature of 21°C.
Some groups of ten male mouses each have been used; the weight of each animal was 30 g approximately.
The compound according to the Example 1 has been tested "per os" at three basic levels of the doses (0,125 - 0,25 - 0,5 mM/kg) and by intravenous injection at two dose levels (0,015 and 0,03 mM/kg), in comparison with one sole dose of Papaverin and chlorhydrated Buflomedil (0,5 mM/kg "per os" and 0,03m M/kg intravenous). The observation of the skin temperature at the mouse's paw was made before the treatment, 30, 60 and 120 minutes after the "per os" treatment, […] (A-Hl Ellab) connected with an Ellab electric recorder. Of each animal the temperature of both hind paws has been measured, and the values obtained have been averaged .

Structure (SMILES): COc1cc(OC)c(C(=O)CCCN2CCCC2)c(OC)c1 [Example 1, 4-(1 pyrrholydinyl)-1-(2,4,6 trimethoxypheniyl)-1-nicotinized butanone]
- Temperature (°C) of the hind paws (n=10) (dose 0,015 mM/kg/iv, 0 minutes (before the treatment)): 24,3 ± 0,25 °C
- Temperature (°C) of the hind paws (n=10) (dose 0,015 mM/kg/iv, 30 minutes from the treatment): 25,9 ± 0,18 °C
- Temperature (°C) of the hind paws (n=10) (dose 0,015 mM/kg/iv, 60 minutes from the treatment): 25,8 ± 0,30 °C
- Temperature (°C) of the hind paws (n=10) (dose 0,015 mM/kg/iv, 120 minutes from the treatment): 25,4 ± 0,22 °C
- Temperature (°C) of the hind paws (n=10) (dose 0,030 mM/kg/iv, 0 minutes (before the treatment), listed as Compound according to the Ex.1): 24,2 ± 0,20 °C
- Temperature (°C) of the hind paws (n=10) (dose 0,030 mM/kg/iv, 30 minutes from the treatment, listed as Compound according to the Ex.1): 26,7 ± 0,31 °C
- Temperature (°C) of the hind paws (n=10) (dose 0,030 mM/kg/iv, 60 minutes from the treatment, listed as Compound according to the Ex.1): 26,5 ± 0,27 °C
- Temperature (°C) of the hind paws (n=10) (dose 0,030 mM/kg/iv, 120 minutes from the treatment, listed as Compound according to the Ex.1): 26,3 ± 0,30 °C
- Temperature (°C) of the hind paws (dose 0,125 mM/kg/os, 0 minutes (before the treatment)): 24,3 ± 0,24 °C
- Temperature (°C) of the hind paws (dose 0,125 mM/kg/os, 30 minutes from the treatment): 24,7 ± 0,32 °C
- Temperature (°C) of the hind paws (dose 0,125 mM/kg/os, 60 minutes from the treatment): 024,9 ± 0,30 °C
- Temperature (°C) of the hind paws (dose 0,125 mM/kg/os, 120 minutes from the treatment): 25,2 ± 0,35 °C
- Temperature (°C) of the hind paws (dose 0,250 mM/kg/os, 0 minutes (before the treatment)): 24,7 ± 0,20 °C
- Temperature (°C) of the hind paws (dose 0,250 mM/kg/os, 30 minutes from the treatment): 25,2 ± 0,44 °C
- Temperature (°C) of the hind paws (dose 0,250 mM/kg/os, 60 minutes from the treatment): 25,8 ± 0,32 °C
- Temperature (°C) of the hind paws (dose 0,250 mM/kg/os, 120 minutes from the treatment): 25,5 ± 0,50 °C
- Temperature (°C) of the hind paws (dose 0,500 mM/kg/os, 0 minutes (before the treatment), listed as Compound according to the Example 1): 24,6 ± 0,25 °C
- Temperature (°C) of the hind paws (dose 0,500 mM/kg/os, 30 minutes from the treatment, listed as Compound according to the Example 1): 26,8 ± 0,30 °C
- Temperature (°C) of the hind paws (dose 0,500 mM/kg/os, 60 minutes from the treatment, listed as Compound according to the Example 1): 27,5 ± 0,40 °C
- Temperature (°C) of the hind paws (dose 0,500 mM/kg/os, 120 minutes from the treatment, listed as Compound according to the Example 1): 27,2 ± 0,45 °C
